Results published in the METLIN SMRT retention time set (Domingo-Almenara et al. 2019).

Experiment: gradient 5% acetonitrile 3 min, to 50% in 2 min, to 85% in 15 min, held 3 min, 100 µL/min
Conditions: column: Zorbax Extend-C18 2.1 x 50 mm; eluents: water / acetonitrile, 0.1% formic acid
Summary of the method: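 Pure standards were analyzed in mixtures of ~100 molecules using HPLC coupled to a quadrupole time-of-flight mass spectrometer, in both positive and negative ionization mode. Separation used a Zorbax Extend-C18 column (2.1 × 50 mm, 1.8 μm) at 100 μL/min, with water and acetonitrile each containing 0.1% formic acid. Dead and dwell volumes were 40 μL and 900 μL, and data were collected over 3 months. Retention time was read from computationally picked adduct peaks, each inspected manually.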

| SMILES | RP-LC retention time [s] |
| --- | --- |
| Cc1ccc(NC(=O)C2CCN(S(=O)(=O)c3cn(C)cn3)CC2)cc1 | 701 |
| O=C(c1ccc(F)cc1)N(CC1CCOC1)C1CC1 (stereo not given) | 747 |
| Cc1cccc(C)c1NC(=O)CSc1ccc(N2CCCC(C(=O)NC3CC3)C2)nn1 (stereo not given) | 628 |
| O=C(NCc1ccc(Cl)cc1)c1cn2c(n1)CCCC2 | 621 |
| Cn1cnc2ccc(-c3noc(CNC(=O)c4cccs4)n3)cc21 | 585 |
| COC(=O)C(N)Cc1ccc(Cl)cc1 (stereo not given) | 653 |
| Cc1nn(C)c(=O)c2cc(S(=O)(=O)NCc3ccccc3Cl)cn12 | 807 |
| Cc1ccc(NC(=O)N2CCC3(C2)C(=O)Nc2ccccc23)cc1 (stereo not given) | 745 |
| Cc1sc(NC(=O)c2ccc(Cl)cc2)nc1-c1ccc2c(c1)NC(=O)C(C)O2 (stereo not given) | 968 |
| Cc1cc(C)cc(NS(=O)(=O)c2cc3n(c2)CCN(C(C)C)C3=O)c1 | 808 |
| CCC1=C(c2ccc(C)cc2)S(=O)(=O)N=C1N1CCC(C(=O)N2CCOCC2)CC1 | 780 |
| Cc1ccc(-c2noc(C3CCCN3C(=O)C3CC(=O)N(c4cccc(Cl)c4)C3)n2)cc1 (stereo not given) | 1040 |
| Cc1nc2cc(-c3noc(-c4cc(F)ccc4Cl)n3)ccc2o1 | 1150 |
| O=C(C1CCN(S(=O)(=O)c2ccc(-c3noc(-c4ccncc4)n3)cc2)CC1)N1CCCC1 | 814 |
| O=C(NCc1ccccn1)C1CCN(c2nc3cccnc3s2)CC1 | 588 |
| C1CCC(NC2=NCCO2)CC1 | 615 |
| O=C(C1CCC(=O)N1S(=O)(=O)c1ccccc1)N1CCCCC1 (stereo not given) | 757 |
| COC(=O)c1ncn2c1C(=O)N(CCCc1ccccc1)C(C)(C(=O)NC1CCCCC1)C2 (stereo not given) | 820 |
| Cc1cnc(C)n1C1CCN(S(=O)(=O)c2ccc(C#N)cc2)CC1 | 626 |
| CCN1CCCn2nc(C3CCN(C(=O)C4CCCC4)CC3)cc2C1=O | 686 |
| Cc1ccc(N2CCN(S(=O)(=O)c3cc(-c4nnc(C5CCC5)o4)co3)CC2)cc1 | 1110 |
| C#CC(C)(CC)OCC(O)CN1C(C)(C)CC(O)CC1(C)C (stereo not given) | 568 |
| COc1ccc(S(=O)(=O)N2CCC(c3noc(-c4ccc(Cl)cc4)n3)CC2)cc1 | 1140 |

| SMILES | RP-LC retention time [s] |
| --- | --- |
| COc1ccc(OC)c(N2CC(c3nc4ccccc4n3CCN3CCOCC3)CC2=O)c1 (stereo not given) | 597 |
| O=C(NC1CCCCCC1)C1CCN(Cc2cc3ccccc3n2Cc2cccc(Cl)c2)CC1 | 882 |
| CC(C)Cn1c(=O)c2cc(C(=O)NC(C)c3ccccc3)nn2c2ccccc21 (stereo not given) | 1090 |
| CCOC(=O)c1ccc2nc(C(F)(F)F)nc(NCCCN3CCOCC3)c2c1 | 658 |
| CN(CC(=O)N1CCN(c2ccccn2)CC1)c1nnc(N2CCCC2=O)s1 | 550 |
| O=C(Nc1ccc(Cl)cc1)c1c(O)c2cccnc2n(Cc2ccccc2)c1=O | 1290 |
| COc1ccc(NS(=O)(=O)c2cc3c4c(c2)CCC(=O)N4CCC3)cc1OC | 730 |
| COc1cccc(-c2noc(C3CC(=O)N(c4cccc(Cl)c4)C3)n2)c1OC (stereo not given) | 936 |
| CSc1ccc(CNC(=O)Cn2nc(-n3cccc3)c3c(C)cc(C)nc32)cc1 | 1020 |
| COc1ccc(-c2nc(-c3cn(-c4ccc(C)cc4)nn3)no2)c(OC)c1 | 1050 |
| CCc1ccc(-n2ncc3c(=O)n(Cc4nc(-c5ccc(C)c(C)c5)no4)cnc32)cc1 | 1300 |
| CC(C)CNc1nnc(-c2nc(C3CC3)no2)c2ccccc12 | 657 |
| CCc1cc(=O)n(CC(=O)NCc2ccc(F)cc2)c(N)n1 | 793 |
| Cc1cc(N2CCOCC2)nc(N2CCN(C(=O)c3cccc(Br)c3)CC2)n1 | 636 |
| Cc1cc(=O)n(CC(=O)Nc2ccc(Br)cc2)c(N2CCc3ccccc3C2)n1 | 885 |
| Cc1c(Cl)cccc1NC(=O)N1CC(n2cnnc2-c2ccccc2)C1 | 720 |
| CCCn1cc(C(=O)NCc2ccncc2)c2cccnc21 | 572 |
| Cn1cnnc1SCCNC(=O)Cc1noc2ccccc12 | 591 |
| C=CCn1c(C)c(CC(=O)NC(C)CC)c(=O)n2nc(-c3ccccc3)nc12 (stereo not given) | 818 |
| COC1CCOC2(CCN(C(=O)c3ccco3)CC2)C1 (stereo not given) | 645 |
| CCN1CCN(CC2CCN(S(=O)(=O)Cc3cccc(Cl)c3)CC2)CC1 | 618 |
| CCOC(=O)c1c(C)oc2ncnc(NCCN3CCN(c4cccc(Cl)c4)CC3)c12 | 860 |
| CCN1CCN(S(=O)(=O)c2cccc(-c3nc(-c4ccccc4)no3)c2)CC1 | 722 |

| SMILES | RP-LC retention time [s] |
| --- | --- |
| Fc1ccc(-c2noc(-c3nnc(NCCN4CCOCC4)c4ccccc34)n2)cc1 | 701 |
| CC(C)CCC(=O)N1CCc2nc(N3CCN(C)CC3)sc2C1 | 609 |
| Cc1cc(Br)ccc1NC(=O)C(=O)Nc1ccc2nc3n(c(=O)c2c1)CCCCC3 | 990 |
| Cc1noc2nc(C)n(CC(=O)NC(C)c3ccccc3)c(=O)c12 (stereo not given) | 756 |
| O=c1ccc(N2CCC(NS(=O)(=O)c3cccs3)C2)nn1CCOc1ccccc1 (stereo not given) | 801 |
| COC(=O)NCc1nnnn1-c1ccc(OC)cc1 | 616 |
| Cc1nnc(-c2ccc3ccn(CC(=O)Nc4ccccc4Cl)c3c2)o1 | 963 |
| CCn1c(=O)sc2cc(S(=O)(=O)N3CCC(C(=O)Nc4ccc(C)cc4)CC3)ccc21 | 940 |
| COc1cccc(NC(=O)Cn2c(C(F)(F)F)nc3cc4c(cc32)OCCO4)c1 | 841 |
| CCn1cc(-c2nc(C(=O)Nc3cc(Cl)ccc3OC)cs2)c2cccnc21 | 1360 |
| O=c1c(Nc2ccc(F)c(F)c2)nc2ccncc2n1Cc1ccccc1 | 775 |
| CCOc1ccccc1C(=O)NC1CCN(c2cc(-c3ccccc3)[nH]n2)C1 (stereo not given) | 684 |
| O=C(NCc1ccncc1)C1CCCN(c2nnc3c(Cl)cccn23)C1 (stereo not given) | 561 |
| COc1ccccc1CCC(=O)NC1(c2nc(-c3cccnc3)no2)CCCCC1 | 956 |
| O=C(Cn1nc2c(N3CCCCCC3)nccn2c1=O)Nc1cccc(Cl)c1F | 750 |
| COc1ccc(-c2noc(C3CC(=O)N(c4ccc(C)c(F)c4)C3)n2)c(OC)c1 (stereo not given) | 948 |
| O=C1CCC(C(=O)N2CCC3(CCC3O)CC2)=NN1 (stereo not given) | 575 |
| Cc1ccc(NC(=O)CN2C(=O)CCc3cc(S(=O)(=O)N4CCCCC4C)ccc32)cc1 (stereo not given) | 797 |
| CCC(C(=O)N1CCN(c2ccccn2)CC1)n1nc(C)c2nn(-c3ccccc3)c(C)c2c1=O (stereo not given) | 669 |
| COc1ccc(NC(=O)c2sc(-c3cn(C)c4ncccc34)nc2C)cc1 | 867 |
| Cc1ccc(-n2nc(C)c(S(=O)(=O)N3CCC(C(=O)NCc4cccs4)CC3)c2C)cc1 | 919 |
| CC1COC2(CCN(c3nc(=O)c4cc(C(F)(F)F)cc([N+](=O)[O-])c4s3)CC2)O1 (stereo not given) | 1000 |
| CCCn1cc(CCNC(=O)c2ccc(Br)cc2)c2cccnc21 | 832 |

| SMILES | RP-LC retention time [s] |
| --- | --- |
| COC(=O)C1C(=O)C2=C(CC1C)NC(=O)CC2c1cccc(C)c1 (stereo not given) | 675 |
| CCC1=NS(=O)(=O)c2cccnc2N1c1ccc(CC)cc1 | 931 |
| COCc1cc(=O)n(CC(=O)NCc2ccc(F)cc2)c(N)n1 | 583 |
| O=C(c1c(-c2ccccc2)nnc2ccccc12)N1CCN(c2ncccn2)CC1 | 773 |
| COc1ccc(C)cc1NC(=O)C(=O)c1ccc[nH]1 | 982 |
| CCC(=O)N1CCc2cc(N3CC(C(=O)NCc4cccc(C)c4)CC3=O)ccc21 (stereo not given) | 745 |
| Cc1cccc(C)c1NC(=O)N1CC(n2cnnc2-c2ccccc2)C1 | 715 |
| CCc1ccc(-n2nc(N3CCCC(C(=O)NCc4cccc(F)c4)C3)ccc2=O)cc1 (stereo not given) | 899 |
| COc1ccc(N2C(=O)C3N=NN(Cc4nc(-c5ccccc5)no4)C3C2=O)cc1 (stereo not given) | 912 |
| CC1CN(C(=O)CCC(=O)NCCCN2CCC(N3CCCCC3)CC2)c2ccccc2O1 (stereo not given) | 573 |
| COc1cccc(-c2nnc(NC(=O)C3CCCCC3)o2)c1 | 753 |
| CCOC(=O)c1cc([N+](=O)[O-])sc1NC(=O)CCCS(=O)(=O)c1ccc(F)cc1 | 965 |
| O=C(NCc1ccccc1)c1csc(Nc2ccncn2)n1 | 687 |
| O=C(NCc1cccs1)C1CCN(c2cnn(Cc3ccccc3)c(=O)c2)CC1 | 742 |
| O=C(c1ccco1)N1CCC(OCc2nc(C3CC3)no2)CC1 | 732 |
| Cc1ccc(CNC(=O)c2ccc(CN3CCN(Cc4ccc(F)cc4)C(=O)C3=O)cc2)o1 | 823 |
| CCC(NC(=O)C1CCN(c2cncnc2N2CCCCC2)CC1)c1cccs1 (stereo not given) | 706 |
| CS(=O)(=O)NCC1CCC(C(=O)Nc2cccc3nsnc23)CC1 (stereo not given) | 700 |
| Cn1c(C(=O)NCCc2c[nH]c3ccccc23)cc2c(-c3cccs3)nn(-c3ccccc3)c21 | 969 |
| Cn1cc(C(=O)O)c(S(=O)(=O)N2CCOCC2)n1 | 576 |
| CCN1CCN(c2c(S(=O)(=O)c3ccc(Cl)cc3)cnc3cc(OC)c(OC)cc23)CC1 | 634 |
